Like-named read-outs stand apart in the source and are kept apart here.
Legend:
[1] = tested on: barnacle (Balanus amphitrite) cyprid larvae; test: Barnacle cyprid larval 24 hour settlement inhibition assay; assay type: in vivo; conditions: for anti-settlement activity (in words): barnacle larval settlement; for IC50: cyprid larvae, 24 hr exposure, probit analysis, interval in parentheses; for Inhibition Pot/Paralytic Pot: ratio of relative settlement inhibition potency to relative crayfish paralytic potency; for Barnacle Larvae Settlement Rel. Pot: relative to 2,3′-BP = 100; for Barnacle Larvae Settlement % Inhib: single concentration, three separate experiments, spread in parentheses
From the text: (§1) While the cypris larval stage was used in settlement tests, the second naupliar larval stage was used in toxicity tests. Great care was taken to ensure that the free bases completely dissolved in aged sea water solutions previously filtered to remove particles >than 100 kDa. This was accomplished by diluting (by immediate and thorough vortexing) a 3×10^−2 Molar solution of the free base in methanol at least 1,000-fold into the filtered sea water. Diluted aqueous solutions of the compounds were not refrigerated and were used within an hour of preparation.

[2] = tested on: barnacle second naupliar larval stage; test: Barnacle naupliar larval 24 hour toxicity (mortality) assay; assay type: in vivo, Balanus amphitrite; conditions: 24 hr mortality, interval in parentheses, read-out: Barnacle Larvae Lethal Median Conc. LC50
From the text: as §1
(§2) All six possible unsubstituted bipyridyls were also tested.

[3] = tested on: crayfish Procambarus clarkii; conditions: for crayfish paralytic activity (in words): crayfish paralysis assay; for Crayfish Acute Paralytic Dose PD50: Table 1, no footnote, P. clarkii, injected into haemocoele, paralysis at 15 min; for fold less toxic/paralytic than 2,3′-BP in crayfish: injected into crayfish, compared with 2,3′-BP; for Crayfish Paralysis PD50: Table 2, no footnote, paralysis 15 min after injection; for Crayfish Paralysis Rel. Pot: relative to 2,3′-BP = 100
Description: Each alkaloid, dissolved in 0.9% sodium chloride containing 10 mM Tris buffer (pH 7.4), was injected into the haemocoele which surrounds the heart. Dose per unit weight was kept constant by injecting a variable volume, 0.10 ml per 10 g fresh weight. Paralysis was measured 15 minutes after injection by measuring the animal's ability, after being placed on its back, to right itself within a 2-minute period. Although the convulsive paralytic effect of the bipyridyls reached a peak about 2-minutes after injection, paralysis could be more conveniently measured 15 minutes after injection. Generally, the same number (10-20) of crayfish were injected at each dose, and the dose interval was kept constant. Before the assay, crayfish were tested to ascertain that they could right themselves within a one minute period.
Animals initially develop tremors, then flex their legs, repeatedly flip their tails, then fall on their side in a tonic convulsion within 2-5 minutes after injection. Recovery is appreciable within 15 minutes, the time selected as most convenient for evaluating groups of 5 animals rapidly injected one after another.

[4] = tested on: crayfish Procambarus clarkii; conditions: cited from earlier work; for Crayfish Paralysis PD50: Table 2 footnote 1: published previously (Kem, Soti 2001)
[5] = Barnacle naupliar larval 24 hour toxicity (mortality) assay; assay type: in vivo, Balanus amphitrite; conditions: Balanus amphitrite, in vivo, other: larvae exposed in sea water solution of the compound; second naupliar stage, 24 hr mortality; interval in parentheses; read-out: Barnacle Larvae Lethal Median Conc. LC50
From the text: as §1, §2

[6] = Table 1 footnote 2: published previously, P. clarkii from Louisiana (Kem, Soti 2001)
[7] = Table 1 footnote 1: published previously, P. clarkii from California (Kem 1976)

Molecule | anti-settlement activity (in words) [1] | IC50 ([1]; Amphibalanus amphitrite) [µM] | LC50 at 24 h [5] [µM] | Inhibition Pot/Paralytic Pot [1] | Barnacle Larvae Settlement Rel. Pot [1] | Barnacle Larvae Settlement % Inhib [1] | Crayfish Paralysis Rel. Pot [3] | further results
1-methyl-2,3′-BP [1-Methyl-2,3′BP, reference compound] | low anti-settlement activity | – | – | – | – | – | – | IC50 [1]: > 100 µM; LC50 [2]: > 100 µM; crayfish paralytic activity (in words) [3]: very low paralytic activity; Crayfish Acute Paralytic Dose PD50 [4, 6]: >800^2 μg
2-(thienyl)-pyridine [reference compound] | inactivity | – | – | – | – | – | – | IC50 [1]: > 100 µM; LC50 [2]: > 100 µM; Crayfish Acute Paralytic Dose PD50 [4, 6]: 650^2 μg
c1cnc2c(c1)ccc1ncccc12 [1,7-phenanthroline, reference compound] | inactive at a 10-fold higher concentration | > 50 | > 50 | – | – | – | – | crayfish paralytic activity (in words) [3]: low activity; Crayfish Acute Paralytic Dose PD50 [4, 6]: >30^2 μg
c1cnc2c(c1)ccc1ccncc12 [1,9-phenanthroline] | almost as active as 2,3′-BP | 2 | > 50 | – | – | – | – | Crayfish Acute Paralytic Dose PD50 [4, 6]: 3.0^2 μg
c1ccc(-c2ccccn2)nc1 [2,2′-BP, 2,2′-bipyridyl] | – | 7 | 4.4 | – | – | – | – | Crayfish Acute Paralytic Dose PD50 [3]: >100 µg; fold less toxic/paralytic than 2,3′-BP in crayfish [3]: at least 50 fold
c1ccc(-c2cccnc2)nc1 [2,3′-BP, 2,3′-Bipyridyl] | – | 4.1 | 1.9 | 1.0 | 100 | 54 (11) % | 100 | Crayfish Paralysis PD50 [3]: 1.8 µg; pKa (physchem): 4.4; Crayfish Acute Paralytic Dose PD50 [4, 7]: 0.88^1 μg; Crayfish Acute Paralytic Dose PD50 [4, 6]: 1.8^2 μg
c1ccc(-c2ccncc2)nc1 [2,4′-BP, 2,4′-bipyridyl] | – | > 100 | > 50 | – | – | – | – | Crayfish Acute Paralytic Dose PD50 [3]: >20 µg
c1cnc(-c2cccnc2)nc1 [2-(3-pyridyl)-pyrimidine] | – | > 50 | > 50 | – | – | – | – | Crayfish Acute Paralytic Dose PD50 [4, 6]: 2.6^2 μg
Cc1ncccc1-c1ccccn1 [2′-Me2,3′-BP, 2′-Me2,3′-bipyridyl] | – | – | – | <0.05 | 0 | 0 (33) % | 1 | Crayfish Paralysis PD50 [4]: 210^1 μg
c1cncc(-c2cccnc2)c1 [3,3′-BP, 3,3′-bipyridyl] | – | > 100 | 10 | – | – | – | – | Crayfish Acute Paralytic Dose PD50 [3]: 17 µg
c1cncc(-c2ccncc2)c1 [3,4′-BP, 3,4′-bipyidyl] | – | – | – | – | – | – | – | IC50 [1]: > 100 µM; LC50 [2]: > 20 µM; Crayfish Acute Paralytic Dose PD50 [3]: 61 µg
Clc1cccnc1-c1cccnc1 [3-Chloro-2,3′-BP, reference compound] | inability of the 3-chloro-2,3′-BP to inhibit settlement at 100 μM | – | – | – | – | – | – | IC50 [1]: > 100 µM; LC50 [2]: > 50 µM
Cc1cccnc1-c1cccnc1 [3-Me2,3′-BP, 3-Methyl-2,3′-bipyridyl] | – | – | – | 2.1 | 63 | 34 (13) % | 30 | Crayfish Paralysis PD50 [4]: 59^1 μg
c1cc(-c2ccncc2)ccn1 [4,4′-BP, 4,4′-bipyridyl] | – | > 100 | – | – | – | – | – | –
Cc1ccnc(-c2cccnc2)c1 [4-Me2,3′-BP, 4-Me2,3′-bipyridyl] | – | – | – | 3.1 | 154 | 83 (4) % | 50 | Crayfish Paralysis PD50 [3]: 3.6 µg
Cc1ccncc1-c1ccccn1 [4′-Me2,3′-BP, 4′-Methyl-2,3′-bipyridyl] | – | – | – | 56 | 167 | 90 (10) % | 3 | fold less toxic/paralytic than 2,3′-BP in crayfish [3]: 33 fold; crayfish paralytic activity as % of 2,3′-BP ([3]; relative to 2,3′-BP): 3%; Crayfish Paralysis PD50 [4]: 69^1 μg
Cc1ccc(-c2cccnc2)nc1 [5-Me2,3′-BP, 5-methyl-2,3′-bipyridyl] | – | – | – | 0.96 | 176 | 95 (5) % | 184 | Crayfish Paralysis PD50 [3]: 0.98 µg
Cc1cncc(-c2ccccn2)c1 [5′-Me2,3′-BP, 5′-Methyl-2,3′-bipyridyl] | – | – | – | 1.8 | 100 | 54 (28) % | 55 | Crayfish Paralysis PD50 [3]: 3.3 µg
Cc1cccc(-c2cccnc2)n1 [6-Me2,3′-BP, 6-methyl-2,3′-bipyridyl] | – | – | – | 0.27 | 30 | 16 (16) % | 112 | Crayfish Paralysis PD50 [3]: 1.6 µg
Cc1ccc(-c2ccccn2)cn1 [6′-Me2,3′-BP, 6′-Methyl-2,3′-bipyridyl] | – | – | – | 3.7 | 56 | 30 (16) % | 15 | Crayfish Paralysis PD50 [3]: 12 µg
c1cncc(C2=NCCCC2)c1 [Anabaseine, anabaseine] | – | 1.2 | 2 | – | – | – | – | crayfish paralytic activity (in words) [3]: slightly less paralytic than 2,3′-BP; fold less toxic/paralytic than 2,3′-BP in crayfish [3]: approximately 4 fold; Crayfish Acute Paralytic Dose PD50 [4, 7]: 3.6^1 μg
c1cncc([C@@H]2CCCCN2)c1 [Anabasine] | – | 3 | – | – | – | – | – | Crayfish Acute Paralytic Dose PD50 [3]: 3.9 µg
c1cncc(-c2ccnc(-c3cccnc3)c2)c1 [Nicotelline] | displayed an activity similar to nemertelline | – | – | – | – | – | – | –
c1cncc(C2=NCCCN2)c1 [PTHP, 2-(3-pyridyl)-3,4,5,6-tetrahydropyrimidine, reference compound] | relative inactivity | > 100 | > 100 | – | – | – | – | crayfish paralytic activity (in words) [3]: very low paralytic activity; Crayfish Acute Paralytic Dose PD50 [4, 6]: 81^2 μg
(S)-anabaseine | inhibited settlement | – | – | – | – | – | – | –
nemertelline | – | – | – | – | – | – | – | IC50 [1]: 3.2 µM; Crayfish Acute Paralytic Dose PD50 [3]: >120 µg
